Measurements reported in patent publication US8188109B2, “Benzoquinolizinium salt derivatives as anticancer agents” (Naxospharma S.r.l., priority 2009, dated 2012).
Read-outs that look alike come from different tables or passages of the source.

What was measured:
[1] = system: 2008 cell line (serous cystadenocarcinoma of the ovary); assay: Cell growth assay (crystal violet dye), 2008 cells; assay type: cell-based, human; conditions: read-out: IC50 (cell growth inhibition)
Experimental: (§1) For the determination of the in vitro antitumour activities, the compounds of the invention were assayed in a panel of sensible, resistant and refractary tumour cell lines, which are only exemplary for the antitumour activity of the inventive compounds, and are not to be construed as limiting their antitumour activities only to the cell lines set forth herein. Cell lines. The 2008 cell line was established from a patient with serous cystadenocarcinoma of the ovary and the cDDP-resistant C13* subline, about 15-fold resistant to cDDP, was derived from the parent 2008 cell line by monthly exposure to cDDP, followed by chronic exposure to step-wise increases in cDDP concentration (Cancer Research 52, 1895, 1992). The cell lines were grown as monolayers in RPMI 1640 medium containing 10% heat-inactivated fetal bovine serum and 50 μg/mL gentamycin sulfate. All cell media and serum were purchased from (Lonza, Verviers, Belgium). Cultures were equilibrated with humidified 5% CO2 in air at 37° C. All studies were performed in Mycoplasma negative cells, as routinely determined with the MycoAlert Mycoplasma detection kit (Lonza, Walkersville, Md., USA).
(§2) Cell growth assay. Cell growth was determined by a modification of the crystal violet dye assay (Analytical biochemistry, 182, 16 1989). On selected days, after removal of the tissue culture medium, the cell monolayer was fixed with methanol prior to staining with 0.2% crystal violet solution in 20% methanol for at least 30 minutes. After washing several times with distilled water to remove the dye excess, the cells were let to dry. The incorporated dye was solubilized in acidic isopropanol (1N HCl : 2-propanol, 1:10). After appropriate dilution, dye was determined spectrophotometrically at 540 nm. The extracted dye was proportional to cell number. Percentage of cytotoxicity was calculated by comparing the absorbance of cultures exposed to the compounds of the invention to non-exposed (control) cultures. Percentage of cytotoxicity is here reported as the half maximal inhibitory concentration (IC50), which is a measure of the effectiveness of a compound of the invention in inhibiting cell growth by half with respect to control (100%).

[2] = system: cDDP-resistant C13* subline; assay: Cell growth assay (crystal violet dye), C13* cells; assay type: cell-based, human; conditions: read-out: IC50 (cell growth inhibition)
Experimental: as §1, §2

[3] = system: cisplatin resistant A2780 cells (A2780/CP); assay: Cell growth assay (crystal violet dye), A2780/CP cells; assay type: cell-based, human; conditions: 72 hrs exposure, read-out: IC50 (cell growth inhibition)
Experimental: (§3) The human ovarian cancer cell line A2780 and a platinum-resistant subline selected in vitro by stepwise increases of cisplatin concentration in the medium were from University of Modena and Reggio Emilia. The cisplatin resistant A2780 cells were challenged weekly with 50 uM cisplatin for 1 hr. Both cell lines were maintained in RPMI 1640 medium with 10% (vol/vol) fetal calf serum, penicillin (62.9 mg/L), and streptomycin (100 mg/L) (GIBCO).
as §2

[4] = system: human ovarian cancer cell line A2780; assay: Cell growth assay (crystal violet dye), A2780 cells; assay type: cell-based; conditions: 72 hrs exposure, read-out: IC50 (cell growth inhibition)
Experimental: as §3, §2

[5] = system: HCT 116 colon carcinoma cell line; assay: Cell proliferation MTT assay, HCT 116; assay type: cell-based; conditions: Homo sapiens, HCT-116, 24 h, read-out: MTT cell proliferation, percentage compared to control cells considered as 100%; for activity at 1 µM: HCT 116, compound at 1 uM, 24 h exposure; for activity at 10 µM: HCT 116, compound at 10 uM
Experimental: (§4) Cell cultures and treatments. Human tumor cells (HeLa from uterin cervix and HCT116 from colon carcinoma) were grown at 37° C. in humidified atmosphere containing 5% CO2 in D-MEM supplemented with 10% FCS, 4 mM glutamine, 2 mM Na pyruvate, 100 U/mL penicillin and 0.1 mg/mL streptomycin (all reagents were from Celbio, Pero, Italy). HeLa cells are the most widely used human tumor cell line; HCT 116 colon carcinoma cell line has proven to be extremely resistant to conventional chemotherapy. Cells were treated with the compounds of the invention at a fixed dose of 10 uM for 24 h, eventually followed by 24 of recovery in drug free medium. As a positive control of growth inhibition, cells were treated with 10 uM etoposide. Some of the inventive were also assayed at a dose of 1 uM.
(§5) Cell proliferation assays—MTT assay. Cells are seeded in 96 multiwell-plates at the density of 10^3/100 μl (except fibroblasts that are seeded at the density of 1.5×10^3/100 μl). Cells are treated 24 h later with the drug for 24 h eventually followed by 24 h of recovery in drug-free medium. At the end of the treatments, 20 μl of CellTiter 96 Non-Radioactive Cell Proliferation Assay (MTT; Promega, Milano, Italy) are added to each well. Plates are then incubated for 4 h at 37° C. in the dark and analyzed with a reader of microplates (Gio. De Vita, Roma, Italy) at 492 nm. Experiments are performed in quadruplicate and repeated three times. Data are expressed in the following Tables 2a-c as the percentage compared to control cells considered as 100%.

HeLa cells = assay: Cell proliferation MTT assay, HeLa; assay type: cell-based; conditions: Homo sapiens, 24 h, read-out: MTT cell proliferation, percentage compared to control cells considered as 100%; for activity at 1 µM: compound at 1 uM; for activity at 10 µM: compound at 10 uM
Experimental: as §4, §5

tumour cell lines = assay: In vitro antitumour activity, panel of tumour cell lines (statement in words); assay type: cell-based, human; conditions: compared with the novel compounds / prior art protoberberines
Experimental: as §1

[6] = Homo sapiens, 2008 cells, 72 hrs exposure
[7] = Homo sapiens, C13* cells, 72 hrs exposure
[8] = 24 h + 24 h recovery in drug-free medium

SMILES | IC50 [1, 6] [µM] | IC50 [2, 7] [µM] | IC50 ([1]; Homo sapiens, 72 h) [µM] | IC50 ([3]; Homo sapiens, A2780C/P) [µM] | IC50 ([4]; Homo sapiens) [µM] | activity at 1 µM [5] [%] | activity at 10 µM [5, 8] [%] | activity at 10 µM ([5]; 24 h) [%] | activity at 1 µM (HeLa cells; [8]) [%] | activity at 1 µM (HeLa cells) [%] | activity at 10 µM (HeLa cells; [8]) [%] | activity at 10 µM (HeLa cells) [%] | IC50 ([2]; Homo sapiens, C13, 72 h) [µM] | antitumour activity (in words) (tumour cell lines) | IC50 ([1]; 2008 cells, 72 hrs exposure) [µM] | IC50 [3] [µM] | IC50 [4] [µM] | IC50 ([2]; C13* cells, 72 hrs exposure) [µM]
O=c1[nH]cc(F)c(=O)[nH]1 [5-FU, 5-fluoro-2,4(1H,3H)-pyrimidinedione, reference compound] | 10 | 8 | – | – | – | – | – | – | – | – | – | – | – | – | – | – | – | –
COc1ccc2cc3[n+](cc2c1OC)CCc1cc2c(cc1-3)OCO2 [Berberine, 9,10-dimethoxy-5,6-dihydrobenzo[g]-1,3-benzodioxolo[5,6-a]quinolizinium chloride, reference compound] | – | – | 10 | 2.5 | 4 | 201 | 93.3 | 166 | 168 | 178 | 92.9 | 121 | 6 | – | – | – | – | –
COc1ccc2c(Cc3ccccc3)c3[n+](cc2c1OC)CCc1cc2c(cc1-3)OCO2.[I-] [Comp Ex, 13-benzyl-9,10-dimethoxy-5,6-dihydrobenzo[g]-1,3-benzodioxolo[5,6-a]quinolizinium iodide, reference compound] | 9.2 | 5 | – | 3.3 | 2.5 | 119 | 22.2 | 20.4 | 93.6 | 139 | 74.5 | 98 | – | much lower antitumour activity | – | – | – | –
COc1cc([C@@H]2c3cc4c(cc3[C@@H](O[C@@H]3O[C@@H]5CO[C@@H](C)O[C@H]5[C@H](O)[C@H]3O)[C@H]3COC(=O)[C@H]23)OCO4)cc(OC)c1O [Etoposide, 4′-demethylepipodophyllotoxin 9-[4,6-O-ethylidene-beta-D-glucopyranoside], reference compound] | – | – | – | – | – | 139 | 96.2 | 104 | 59.5 | 94.3 | 1 | 74.8 | – | – | – | – | – | –
COc1ccc2c(CCCc3ccccc3)c3[n+](cc2c1OC)CCc1cc2c(cc1-3)OCO2 [NAX012, 13-(3-phenylpropyl)-9,10-dimethoxy-5,6-dihydrobenzo[g]-1,3-benzodioxolo[5,6-a]quinolizinium iodide] | 3.6 | 2.2 | – | 0.6 | 0.6 | 52.1 | 34.8 | 0 | – | – | 41.3 | 72.4 | – | – | – | – | – | –
COc1ccc(CCc2c3[n+](cc4c(OC)c(OC)ccc24)CCc2cc4c(cc2-3)OCO4)cc1 [NAX013, 13-[2-(4-methoxyphenyl)ethyl]-9,10-dimethoxy-5,6-dihydrobenzo[g]-1,3-benzodioxolo[5,6-a]quinolizinium iodide] | 6.6 | 2.4 | – | 1 | 1 | 58.1 | 60.2 | 10 | – | – | 60.8 | 74.5 | – | – | – | – | – | –
COc1ccc2c(CCc3ccc(Cl)cc3)c3[n+](cc2c1OC)CCc1cc2c(cc1-3)OCO2 [NAX014, 13-[2-(4-chlorophenyl)ethyl]-9,10-dimethoxy-5,6-dihydrobenzo[g]-1,3-benzodioxolo[5,6-a]quinolizinium iodide] | 5.8 | 1.8 | – | 1 | 1.4 | – | 15.4 | 49.5 | 59.4 | 92.1 | 45.4 | 71.9 | – | – | – | – | – | –
COc1ccc2c(CCC(c3ccccc3)c3ccccc3)c3[n+](cc2c1OC)CCc1cc2c(cc1-3)OCO2 [NAX018, 13-(3,3-diphenylpropyl)-9,10-dimethoxy-5,6-dihydrobenzo[g]-1,3-benzodioxolo[5,6-a]quinolizinium iodide] | 4 | 0.66 | – | 1 | 0.4 | 68.2 | 13.7 | 30.6 | 45.8 | 64 | 11.3 | 40.6 | – | – | – | – | – | –
COc1ccc2c(CCc3c[nH]c4ccccc34)c3[n+](cc2c1OC)CCc1cc2c(cc1-3)OCO2 [NAX019, 13-[2-(indol-3-yl)ethyl]-9,10-dimethoxy-5,6-dihydrobenzo[g]-1,3-benzodioxolo[5,6-a]quinolizinium iodide] | – | – | – | – | – | – | 32.1 | 6 | – | – | 33.5 | 62.8 | – | – | – | – | – | –
COc1ccc2c(CC(=O)n3ccc4cc(Cl)ccc43)c3[n+](cc2c1OC)CCc1cc2c(cc1-3)OCO2 [NAX030, 13-[(5-chloroindol-1-yl)carbonylmethyl]-9,10-dimethoxy-5,6-dihydrobenzo[g]-1,3-benzodioxolo[5,6-a]quinolizinium iodide] | – | – | – | 2.5 | 4.5 | – | – | – | – | – | – | – | – | – | – | – | – | –
N.N.[Cl][Pt][Cl] [cDDP, cis-diaminedichloroplatinum, reference compound] | – | – | – | – | – | – | – | – | – | – | – | – | – | – | 3.6 | 20 | 2 | 17
